{"source": "ChEMBL document CHEMBL4715694", "about": "“Discovery of novel tetrahydroisoquinoline-containing pyrimidines as ALK inhibitors” (Bioorg Med Chem, 2016)", "key": {"in vitro [1]": {"assay": "in vitro", "details": "rat, liver microsomes"}, "in vivo [2]": {"assay": "in vivo", "details": "rat, po, 10 mg/kg"}, "in vitro [3]": {"assay": "in vitro", "details": "human, liver microsomes"}, "in vivo [4]": {"assay": "in vivo", "details": "rat, po, 10 mg/kg", "remark": "listed apart in the source"}}}
{"smiles": "Cc1cc(Nc2ncc(Cl)c(Nc3ccccc3S(=O)(=O)C(C)C)n2)c(OC(C)C)cc1C1CCNCC1", "note": "[CERITINIB]", "values": [{"measurement": "remaining at 0.5 h, 1 µM", "setting": "in vitro [1]", "result": 98, "unit": "%"}, {"measurement": "Cmax", "setting": "in vivo [2]", "result": 90, "unit": "ng/mL"}, {"measurement": "remaining at 0.5 h, 1 µM", "setting": "in vitro [3]", "result": 88, "unit": "%"}, {"measurement": "AUC", "setting": "in vivo [4]", "result": 1400, "unit": "ng·h/mL"}]}
